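Protocol summary: plate cells (96-well), add compound at 5 concentrations, incubate 48 h, interpolate endpoints linearly. The concentration for full growth arrest is given as TGI.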
What was measured:
Assay in all cases: inhibition of tumour cell growth, NCI panel, 48 h
CCRF-CEM leukemia = system: CCRF-CEM leukemia
EKVX NSCLC = system: EKVX NSCLC
LOX IMVI melanoma = system: LOX IMVI melanoma
MDA-N = system: MDA-N
HL-60(TB) leukemia = system: HL-60(TB) leukemia
ACHN renal = system: ACHN renal
RXF 393 renal = system: RXF 393 renal
TK-10 renal = system: TK-10 renal
PC-3 prostate = system: PC-3 prostate
OVCAR-8 ovarian = system: OVCAR-8 ovarian
RPMI-8226 leukemia = system: RPMI-8226 leukemia
HT29 colon = system: HT29 colon
T-47D breast = system: T-47D breast
SK-MEL-5 melanoma = system: SK-MEL-5 melanoma
SN12C renal = system: SN12C renal
HCT-116 colon = system: HCT-116 colon
A549 NSCLC = system: A549 NSCLC
IGROV1 ovarian = system: IGROV1 ovarian
NCI-H226 lung = system: NCI-H226 lung
U251 CNS = system: U251 CNS

SMILES	TGI (CCRF-CEM leukemia) [µM]	TGI (EKVX NSCLC) [µM]	TGI (LOX IMVI melanoma) [µM]	TGI (MDA-N) [µM]	TGI (HL-60(TB) leukemia) [µM]	TGI (ACHN renal) [µM]	TGI (RXF 393 renal) [µM]	TGI (TK-10 renal) [µM]	TGI (PC-3 prostate) [µM]	TGI (OVCAR-8 ovarian) [µM]	TGI (RPMI-8226 leukemia) [µM]	TGI (HT29 colon) [µM]	TGI (T-47D breast) [µM]	TGI (SK-MEL-5 melanoma) [µM]	TGI (SN12C renal) [µM]	TGI (HCT-116 colon) [µM]	TGI (A549 NSCLC) [µM]	TGI (IGROV1 ovarian) [µM]	TGI (NCI-H226 lung) [µM]	TGI (U251 CNS) [µM]
CN(C)CCCNC(=O)c1c(O)c2ccccc2[nH]c1=O	> 100	> 100	> 100	> 100	> 100	> 100	> 100	> 100	> 100	> 100	> 100	> 100	> 100	> 100	> 100	> 100	> 100	> 100	> 100	
Cn1c(=O)c2c(nc3n(CCCCl)c(=O)ccn23)n(C)c1=O	> 100	> 100	> 100	> 100	> 100	> 100	> 100	> 100	> 100	> 100	> 100	> 100	> 100	> 100	> 100	> 100	> 100	> 100	> 100	> 100
O=C1NCC(CSc2nc3cc(C4CCCc5c4[nH]c4ccccc54)ccc3o2)N1 (stereo not given)	> 100	> 100	> 100	> 100	> 100	> 100	> 100	> 100	> 100	88.1	> 100	> 100	> 100	> 100	> 100	> 100	> 100	> 100	> 100	> 100
Cc1ccc([N+](=O)[O-])cc1S(=O)(=O)Nc1ccc(C2=NOC(c3ccco3)C2)cc1 (stereo not given)	> 100	61.9	40.2	31.5	54.7	49	23.3	> 100	40.5	> 100	96.8	56	89.4	27.7	52.6	31.9	59.7	84.4	39.6	
CC(=O)C1(Cc2cccc3ccccc23)S(=O)(=O)OCCOS1(=O)=O	> 100	32.6	25.7	24.6	41.4	38	26.7	39.6	29.3	55.3	47.2	37.4	43.3	24.6	25	41		15.1	35.3	31.1
CN1CN(c2ccccc2)C2(CCN(Cc3csc4ccccc34)CC2)C1=O	> 100	41.8	25.2	32.2	32.8	92.4	35.2	41.2	43	72.6	7.5	36.5	71	22.4	30.6	19.2	74	44.7	> 100	
COC(=O)C1CC2CCC1(O[Si](C(C)C)(C(C)C)C(C)C)C(O)C2 (stereo not given)	> 100	33.6	27.5	57.4	> 100	80.4	28.8		47.7	28.1	40.7	30.2	76.7	61.7	34.5	36.2	33.4	94	40.7	31.9
CCN1CCC(O)(c2ccc(Oc3ccccc3)cc2)C(C(=O)c2ccc(Oc3ccccc3)cc2)C1 (stereo not given)	25.5	36.9	16.9	26.7	14.1	29.8	53.4	27.3	27.1	38.6	5.63	26.4	28.4	25.7	29.5	21.2	27.5	33		24.2
CCc1cccc(C(C)(C)C)c1NC(=S)N/C=C(/C#N)C(N)=O	> 100	> 100	> 100	> 100	> 100	> 100	> 100		> 100	> 100	> 100	> 100	> 100	> 100	> 100	> 100	> 100	> 100	> 100	> 100
CN(CCNC(=O)c1nn(-c2ccccc2)c2c1Cc1ccccc1-2)CCNC(=O)c1nn(-c2ccccc2)c2c1Cc1ccccc1-2	4.68	9.65	3.32	3.16	2.91	3.44	3.07	4.3	4.81	3.17	14.1	3.73	> 22.5	3.38	3.61	3.13	4.93	3.31		3.09
O=C(O)c1n[nH][nH]c1=S	> 100	> 100	> 100	> 100	> 100	> 100	> 100		> 100	> 100	> 100	> 100	> 100	> 100	> 100	> 100	> 100	> 100	> 100	> 100
CC(=O)N1C(OC(C)C)CC(C)N1c1ccccc1 (stereo not given)	> 10	> 10	> 10	> 10	> 10	> 10	> 10	> 10	> 10	> 10	> 10	> 10	> 10	> 10	> 10	> 10	> 10	> 10	> 10	
